# US8222414B2, “Indole compounds as an inhibitor of cellular necrosis” (LG Life Sciences Ltd., priority 2007, dated 2012)
# Tested on: primary hepatocytes isolated from rats
# Experiment: Cell protective effects against doxorubicin in hepatocytes (WST-1 cell viability)
# Format: cell-based
# Conditions: Hepatocyte; primary rat hepatocytes pretreated with compound for 30 min, then doxorubicin; viability by WST-1 after 24-48 h
# Protocol: Various endogenous/exogenous attacks on the cells trigger the mechanisms of cell death which is broadly classified into two types, i.e. apoptosis or necrosis. Using these cell death mechanisms, in the present experimental example, primacy hepatocytes isolated from rats were treated with drugs which were clinically shown to result in serious side-effects of hepatocyte toxicity or various chemicals which derive cell death, and the compounds synthesized in the Examples were estimated for their hepatocyte protective effects, after 24-48 h. The substances used to derive hepatocyte death include CCl4, ActD, H2O2, doxorubicin, anti-Fas Ab/Actinomycin D, acetaminophen, EtOH, CdCl2, palmitate, stearate, cyclophosphamide, terfenadine, diclofenac, simvastatin, and adefovir. Primary hepatocytes were isolated using the method of Seglen P O (Experimental Cell Research 74 (1972) pp 450-454). Briefly, hepatocytes were isolated according to the two-step collagenase perfusion method, and dead cells were removed by low speed (500 rpm) centrifugation for 10 min using percoll gradient (Kreamer B L etc, In Vitro Cellular & Developmental Biology 22 (1986) pp 201-211). During this step, the viability of cells was maintained 90% or above. The cells were suspended in HepatoZYME media (Gibco BRL), and the number of cells was counted. 1.5×10^4 cells in 100 μl were placed into the collagen-coated 96-well plate (BD biocoat), and adhered on the bottom for 3-4 h.
# In order to assess the hepatocyte protective effect, above adhered cells were pretreated with the Example compounds for 30 min. At this time, the concentration of the Example compounds were serially diluted by 2-fold or 3-fold over 5 steps starting from 30 uM, 10 uM or 1 uM depending on the experiments, and the final concentration of DMSO was adjusted to 0.2%. 30 min after the treatment by compounds, cells were treated by the substances deriving hepatocyte death or hepatotoxic drugs at the concentrations indicated in Table 1. After 24-48 h, the viability of cells was determined to estimate the hepatocyte protective effects. The viability of cells was determined using WST-1 (MK-400, […]) method by the absorbance at 440 nm. Hepatocyte protective effects of the Example compounds were represented by “EC50” which was calculated from measured values. “EC50” herein means the concentration of the compound at which 50% of maximum protective effect is observed in the experiment.
row,SMILES,EC50 [nM]
1,"N[C@H]1CCN(CC[C@@H]2CSC(c3cc4cc(Cl)cc(NC5CCCC5)c4[nH]3)=N2)C1 [Example 176, {2-[(R)-4-((S)-3-amino-pyrrolidin-1-ylethyl)-4,5-dihydro-thiazol-2-yl]-5-chloro-1H-indol-7-yl}-cyclopentyl-amine]",> 1000
2,"c1ccc(Oc2cc(NC3CCCC3)c3[nH]c(C4=N[C@@H](CCN5CCCC5)CS4)cc3c2)cc1 [Example 249, (5-Phenoxy-2-{(S)-4-[pyrrolidin-1-yl-ethyl]-4,5-dihydro-thiazol-2-yl}-1H-indol-7-yl)-cyclopentyl-amine]",110
3,"c1cc(NC2CCCC2)c2[nH]c(C3=N[C@H](CN4CCCC4)CS3)cc2c1 [Example 158, Cyclopentyl-[2-((R)-4-pyrrolidin-1-ylmethyl-4,5-dihydro-thiazol-2-yl)-1H-indol-7-yl]-amine]",910
4,"CC(C)CN(CC(C)C)c1cc(Oc2ccccc2)cc2cc(C3=N[C@@H](CCN4CCCC4)CS3)[nH]c12 [Example 228, (5-Phenoxy-2-{(S)-4-[(pyrrolidin-1-yl)-ethyl]-4,5-dihydro-thiazol-2-yl}-1H-indol-7-yl)-diisobutyl-amine]",130
5,"Cc1cc(NCC2CCOCC2)c2[nH]c(C3=N[C@H](CC(=O)O)CS3)cc2c1 [Example 8, [(R)-2-(5-methyl-7-(tetrahydropyran-4-yl)methylamino-1H-indol-2-yl)-4,5-dihydro-thiazol-4-yl]-acetic acid]",410
6,"CCOC(=O)CC[C@@H]1CSC(c2cc3cc(F)cc(NC4CCCC4)c3[nH]2)=N1 [Example 108, 3-[(R)-2-(5-fluoro-7-cyclopentylamino-1H-indol-2-yl)-4,5-dihydro-thiazol-4-yl]-propionic acid ethyl ester]",< 500
7,"Cc1cc(NC2CCCC2)c2[nH]c(C3=N[C@@H](CC(=O)O)CS3)cc2c1 [Example 26, [(S)-2-(5-methyl-7-cyclopentylamino-1H-indol-2-yl)-4,5-dihydro-thiazol-4-yl]-acetic acid]",200
8,"COC(=O)C[C@@H]1CSC(c2cc3cc(CS(C)(=O)=O)cc(NC4CCCC4)c3[nH]2)=N1 [Example 97, [(R)-2-(5-methanesulfonylmethyl-7-cyclopentylamino-1H-indol-2-yl)-4,5-dihydro-thiazol-4-yl]-acetic acid methyl ester]",4100
9,"Cc1cc(NC2CCC2)c2[nH]c(C3=N[C@@H](CC(=O)O)CS3)cc2c1 [Example 19, [(S)-2-(5-methyl-7-cyclobutylamino-1H-indol-2-yl)-4,5-dihydro-thiazol-4-yl]-acetic acid]",350
10,"CCOP(=O)(CC[C@H]1CSC(c2cc3cc(C)cc(NCC4CCOCC4)c3[nH]2)=N1)OCC [Example 244, (5-Methyl-2-{(S)-4-[2-diethoxyphosphoryl-ethyl]-4,5-dihydro-thiazol-2-yl}-1H-indol-7-yl)-(tetrahydropyran-4-yl)methyl-amine]",195
11,"Cc1cc(NC2CCOCC2)c2[nH]c(C3=N[C@@H](CC(=O)O)CO3)cc2c1 [Example 120, [(S)-2-(5-methyl-7-(tetrahydropyran-4-yl)amino-1H-indol-2-yl)-4,5-dihydro-oxazol-4-yl]-acetic acid]",1120
12,"O=C1c2ccccc2C(=O)N1Cc1cc(NC2CCCC2)c2[nH]c(C3=N[C@H](CO)CS3)cc2c1 [Example 64, [(R)-2-(5-(isoindol-1,3-dion-2-yl)methyl-7-cyclopentylamino-1H-indol-2-yl)-4,5-dihydro-thiazol-4-yl]-methanol]",540
13,"O=C(O)C[C@H]1CSC(c2cc3cc(Oc4ccccc4)cc(NC4CCCC4)c3[nH]2)=N1 [Example 50, [(S)-2-(5-phenoxy-7-cyclopentylamino-1H-indol-2-yl)-4,5-dihydro-thiazol-4-yl]-acetic acid]",250
14,"O=C(O)C[C@H]1CSC(c2cc3cccc(NCC4CCOCC4)c3[nH]2)=N1 [Example 12, [(S)-2-(7-(tetrahydropyran-4-yl)methylamino-1H-indol-2-yl)-4,5-dihydro-thiazol-4-yl]-acetic acid]",3250
15,"Cc1cc(NC2CCCC2)c2[nH]c(C3=N[C@@H](CC(=O)O)CO3)cc2c1 [Example 119, [(S)-2-(5-methyl-7-cyclopentylamino-1H-indol-2-yl)-4,5-dihydro-oxazol-4-yl]-acetic acid]",170
16,"O=C(O)[C@@H]1CSC(c2cc3cccc(NC4CCOCC4)c3[nH]2)=N1 [Example 78, [(R)-2-(7-(tetrahydropyran-4-yl)amino-1H-indol-2-yl)-4,5-dihydro-thiazol-4-yl]-carboxylic acid]",29400
17,"O=C(O)C[C@H]1CSC(c2cc3cccc(NCC4CCCCO4)c3[nH]2)=N1 (stereo partly drawn) [Example 10, 2-[(S)-2-(7-(tetrahydropyran-2-yl)methylamino-1H-indol-2-yl)-4,5-dihydro-thiazol-4-yl]-acetic acid]",600
18,"c1cc(NC2CCCC2)c2[nH]c(C3=NCCS3)cc2c1 [Example 1, Cyclopentyl-[2-(4,5-dihydro-1,3-thiazol-2-yl)-1H-indol-7-yl]-amine]",> 1000
19,"Clc1cc(NC2CCOCC2)c2[nH]c(C3=N[C@H](CCN4CCNCC4)CS3)cc2c1 [Example 193, (5-Chloro-2-{(R)-4-[(piperazin-1-yl)-ethyl]-4,5-dihydro-thiazol-2-yl}-1H-indol-7-yl)-(tetrahydro-pyran-4-yl)-amine]",650
20,"O=C(O)CC[C@@H]1CSC(c2cc3cc(F)cc(NC4CCCC4)c3[nH]2)=N1 [Example 109, 3-[(R)-2-(5-fluoro-7-cyclopentylamino-1H-indol-2-yl)-4,5-dihydro-thiazol-4-yl]-propionic acid]",610
21,"OCc1cc(NC2CCCC2)c2[nH]c(C3=N[C@H](CO)CS3)cc2c1 [Example 6, (R)-2-[7-cyclopentylamino-5-(hydroxymethyl)-1H-indol-2-yl]-4,5-dihydro-thiazol-4-yl-methanol]",4930
22,"O=C(O)CC[C@@H]1CSC(c2cc3cc(Cl)cc(NC4CCCC4)c3[nH]2)=N1 [Example 101, 3-[(R)-2-(5-chloro-7-cyclopentylamino-1H-indol-2-yl)-4,5-dihydro-thiazol-4-yl]-propionic acid]",1000 to 10000

# Same assay, conditions: primary rat hepatocytes pretreated with compound for 30 min, then doxorubicin; viability by WST-1 after 24-48 h
row,SMILES,EC50 [nM]
1,"Cc1cc(NC2CCOCC2)c2[nH]c(C3=N[C@@H](CCO)CS3)cc2c1 [Example 24, [(S)-2-(5-methyl-7-(tetrahydropyran-4-yl)amino-1H-indol-2-yl)-4,5-dihydro-thiazol-4-yl]-ethanol]",130
2,"CCOc1cc(NC2CCCC2)c2[nH]c(C3=N[C@@H](CCO)CS3)cc2c1 [Example 48, [(S)-2-(5-ethoxy-7-cyclopentylamino-1H-indol-2-yl)-4,5-dihydro-thiazol-4-yl]-ethanol]",200
3,O=C(C1CCCO1)N1CCN(CC[C@H]2CSC(c3cc4cc(Oc5ccccc5)cc(NC5CCCC5)c4[nH]3)=N2)CC1 (stereo partly drawn) [Example 234],90
4,"c1ccc(Oc2cc(NC3CCCC3)c3[nH]c(C4=N[C@@H](CCN5CCN(c6ccccn6)CC5)CS4)cc3c2)cc1 [Example 235, (5-Phenoxy-2-{(S)-4-[(pyridin-2-yl)piperazine-ethyl]-4,5-dihydro-thiazol-2-yl}-1H-indol-7-yl)-cyclopentyl-amine]",> 540
5,CS(=O)(=O)CC[C@@H]1CSC(c2cc3cccc(NC4CCOCC4)c3[nH]2)=N1 [Example 218],260
